Experimental data reported in patent publication EP3441475A1, “NEUTRAL HEAT-SENSITIVE SERINE PROTEASE DERIVED FROM O. CORVINA” (priority 2017, dated 2019).
Read-outs that look alike come from different tables or passages of the source.

Target: T1, NHSSP (Onygena corvina, UniProt A0A0B4VM82)
T1 sequence (A0A0B4VM82 113-391): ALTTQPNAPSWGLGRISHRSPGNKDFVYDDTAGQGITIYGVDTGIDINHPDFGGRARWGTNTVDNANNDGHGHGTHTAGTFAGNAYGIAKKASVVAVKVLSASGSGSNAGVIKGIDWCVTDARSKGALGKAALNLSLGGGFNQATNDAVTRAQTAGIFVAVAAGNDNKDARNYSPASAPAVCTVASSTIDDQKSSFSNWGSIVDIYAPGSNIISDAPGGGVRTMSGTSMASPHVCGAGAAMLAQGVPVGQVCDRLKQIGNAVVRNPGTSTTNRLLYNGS
Experiment: biochemical
Format: biochemical
Experimental: The influence of different inhibitors on the enzymatic activity of NHSSP was determined by hydrolysis of azocasein in Britton-Robinson buffer pH 6.5 supplemented with appropriate substances. The reaction was stopped by the addition of TCA to the final concentration of 293 mM, centrifuged as described above, and the absorbance of supernatants was measured at 450 nm.
The enzymatic reaction was carried out at 40°C with a final inhibitor concentration of 1 mM.

[1] = final inhibitor concentration of 1 mM, 40°C, pH 6.5
[2] = remaining NHSSP activity, final inhibitor concentration of 1 mM, 40°C, Britton-Robinson buffer pH 6.5, read-out: Activity (%)

Compound | inhibition of NHSSP protease activity (in words) [1] | activity at 1000 µM [2] [%] | activity at 1000 µM (pH 6.5) [%] | inhibition of NHSSP protease activity (in words) (pH 6.5) | Activity (%) (remaining NHSSP activity, final inhibitor concentration of 1 mM, 40°C, Britton-Robinson buffer pH 6.5)
OCCS [2-ß ME, ß-mercaptoethanol] | did not significantly inhibit protease activity | 99 |  |  | 
O=C(O)CN(CCN(CC(=O)O)CC(=O)O)CC(=O)O [EDTA, ethylenediamine tetraacetate] |  |  | 100 | did not significantly inhibit protease activity | 
O=S(=O)(F)Cc1ccccc1 [PMSF, phenylmethylsulfonyl fluoride] | identified as an inhibitor of NHSSP |  |  |  | 40
O=C(O)CCP(CCC(=O)O)CCC(=O)O [TCEP] | did not significantly inhibit protease activity | 97 |  |  | 
